These results are taken from article PMC3871595, “Structure Based Identification and Characterization of Flavonoids That Disrupt Human Papillomavirus-16 E6 Function” (PLoS ONE, 2013).

Data set [1] has as its system primary human foreskin keratinocytes. Briefly: p53/p21 immunoblot analysis in primary HFKs. The data set is classed as cell-based. Particulars: 40 hours. As for the experimental part: (§1) Each compound was used to treat primary HFKs or HFKs immortalized through the over-expression of HPV16 E6 and E7 proteins.
(§2) 20,000 cells per cm^2 were plated in 6-well dishes. Cells were incubated for 24 hours at which time fresh media and compound were added. After 40 hours, cells were harvested, washed with cold PBS, and lysed in RIPA buffer with protease inhibitor. Each sample was separated on a 12% SDS-page gel, transferred to Immobilon-P membrane (Millipore) and blotted for the p53 (DO-1, Santa Cruz), p21 (c-19, Santa Cruz), and actin (A2066, Sigma). Protein quantification was performed with the Fujifilm LAS-4000 Multifunctional Imaging System. The signal intensity was measured for each band on an immunoblot, normalized to the loading control, and the fold increase was determined in relation to the appropriate DMSO treated control. RNA was isolated from these cells using Trizol Reagent (Invitrogen 15596-026). cDNA was generated using the Improm-II Reverse Transcription System (Promega A3801). qPCR was performed as described in the protocol for SsoFast EvaGreen supermix (BioRad 172-5023) using an BioRad CFX96 real-time PCR machine. Melting curves for each reaction were obtained. Each sample was assayed in triplicate and every plate contained a 5-point cDNA dilution course to calculate amplification efficiency for each primer pair. The Pfaffl method was used to determine the change in transcript levels relative to the DMSO and normalized to GAPDH.
(In general: A western blot detects proteins with antibodies after separation by electrophoresis.)

The subject of data set [2] is E6/E7 immortalized human foreskin keratinocytes. Briefly: p53/p21 immunoblot analysis in E6/E7 immortalized HFKs. The data set is classed as cell-based. The following applies: 40 hours. How it is done:
as §1, §2

The test system of data set [3] is E6/E7 HFKs. Nature of the data set: cell viability (MTS, Celltiter 96 AQueous) E6/E7 HFKs. The data set is classed as cell-based, human. The following applies: 48 to 96 hours, relative to DMSO.
For data set [4], the system named is RPE-1, HeLa, C33a and HaCat cells. Nature of the data set: SA-beta-gal senescence assay in other cell lines. Particulars: 72 hours. The data set is classed as cell-based, human. How it is done:
This was specific to Caski cells and was not observed in RPE-1, HeLa cells, or the HPV negative control cell lines C33a and HaCat (Figures S2A,B ). […] As observed in the viability assay, this occurred in both the HPV positive and negative cell lines. […] These cell lines were also assayed for apoptosis.
12,000 cells per cm^2 were plated in 24-well dishes; after 24 hours, fresh media and compound were added. SA-beta gal staining was performed as described. Images were collected using bright field microscopy. At least four fields (~100 cells per field) were read for each treatment, and experiments were repeated 3 times. The percent SA-beta-gal positive cells was calculated for each data point.

A short description of data set [5]: solubility in aqueous SPR buffers. The data set is classed as physicochemical. Particulars: for aqueous solubility (in words): simple aqueous solution.
The subject of data set [6] is Caski cells. Briefly: cell viability (MTS, Celltiter 96 AQueous) Caski. The data set is classed as cell-based, human. The following applies: 48 to 96 hours, relative to DMSO.
In data set [7] the test system is RPE-1 cells. Nature of the data set: p53/p21 immunoblot analysis in RPE-1 cells. The data set is classed as cell-based, human. Particulars: RPE-1 (HPV negative), 40 hours. How it is done:
Caski cells, which are derived from an HPV-16 infected cervical carcinoma and express HPV-16 E6 and E7, were used to determine whether these compounds interfere with HPV-16 E6 function. Inhibition of E6 should block its ability to promote the degradation of p53 thereby increasing the levels of p53. […] These compounds were also assayed in telomerase immortalized human retinal epithelial cells (RPE-1). […] If the elevation in p53 is dependent on the inhibition of E6 by these compounds, p53 should not increase in the RPE-1 cells.
as §2

For data set [8], the system named is HPV-18 positive HeLa cells. Nature of the data set: cell viability (MTS, Celltiter 96 AQueous) HeLa. Particulars: 48 to 96 hours, relative to DMSO. In kind it is cell-based, human. How it is done:
HPV-18 positive HeLa cells and two additional control cell lines, C33a, a cell line derived from an HPV-negative human cervical cancer isolate, and HaCat, a spontaneously immortalized human keratinocyte cell line, were used to assess compounds for their impact on cell growth and viability. All cells were incubated for 48 to 96 hours with increasing doses of compound. Cell viability was measured by MTS based assay and % viability quantified relative to cells treated with DMSO. […] This is in agreement with the lack of specificity for HPV-dependent cells observed in the p53 western results.
For cell viability, 12,000 cells per cm^2 were plated in 96-well dishes 24 hours prior to drug addition. Fresh media and compound were added. Plates were read after 72-96 hours. Relative cell viability was assayed as directed in the Celltiter 96 AQueous one solution assay (Promega). For caspase activity, plates were assayed after 4, 8, 12, 24, or 48 hours as described for the Caspase-Glo 3/7 assay (Promega).

“Also recorded” adds a separate entry of the source. A value given as a limit tells only on which side of the number the result lay.

`O=c1cc(-c2ccc(O)c(O)c2)oc2cc(O)cc(O)c12` [luteolin, reference compound]: the p21 protein levels entry is “E6 independent increase in p53 and p21” in data set [1]; “increased p53 and p21 protein levels” in data set [2]. In addition, the p53 protein levels entry in data set [1] was “E6 independent increase in p53 and p21”; in data set [2], “increased p53 and p21 protein levels”; in data set [7], “increase in p53 protein levels, but only at concentrations higher than was required to increase p53 and p21 levels in the Caski cells”. The “cell growth and viability” value in data set [3] was “potent inhibitor of Caski, E6/E7 HFKs, and HeLa growth”; in data set [6], “potent inhibitor of Caski, E6/E7 HFKs, and HeLa growth”; in data set [8] it was “potent inhibitor of Caski, E6/E7 HFKs, and HeLa growth”. For the same molecule, in data set [4], the SA-β-gal staining result was “no significant increase in β-gal staining”. Moreover, the solubility in data set [5] (aqueous SPR buffers, read-out: concentration soluble in the appropriate buffers) was under 20 µM. In addition, in data set [5], the “aqueous solubility (in words)” value is “poor solubility”.
With `COc1cccc(-c2cc(=O)c3cc(-c4nnn[nH]4)ccc3o2)c1` [CAF-24], the p21 protein levels result in data set [1] was “little effect on p53 and p21 levels”; in data set [2] it was “increased p53 and p21 protein levels”; in data set [7] it was “did not induce increased levels of p53 or p21 proteins”. Further, the p53 protein levels entry in data set [1] is “little effect on p53 and p21 levels”; in data set [2] it was “increased p53 and p21 protein levels”; in data set [7], “did not induce increased levels of p53 or p21 proteins”. Besides, the “cell growth and viability” value in data set [3], in data set [6] and in data set [8] was “selectively inhibited growth” throughout. Also, in data set [4], the SA-β-gal staining entry is “not observed”. The “aqueous solubility (in words)” value in data set [5] is “poor solubility; also recorded: limited aqueous solubility”.
